Results reported in patent US10087199B2, “Super-resolution imaging compositions and methods using same” (Yale University, priority 2014, dated 2018).
Entries after “also recorded” stand apart in the source; their conditions may differ.

Assays:
Format in all cases: cell-based
[1] = system: HeLa cells stably transfected to express GalNAcT2-GFP (Golgi); assay: Incubation with premixed/preassembled Cer-SiR (Golgi labeling); conditions: approximately 2 μM Cer-SiR solution; three protocols A-C
Method: An approximately 2 μM solution of Cer-SiR was prepared as follows: Stock solutions in DMSO of SiR-Tz and Cer-TCO were added to a PBS buffer supplemented with 1% casein to achieve a final concentration of 2 μM for both components. The solution was thoroughly mixed and incubated for 15 min at room temperature. Before the solution was added to dishes containing cells, Pluronic F-127 was added (0.2% final concentration). The formation of Cer-SiR was confirmed by HPLC.
Protocol A: HeLa cells stably transfected to express GalNAcT2-GFP were cultured on 35 mm glass bottom dishes (Mattek), washed with DMEM (3×) and incubated with the Cer-SiR solution (prepared as described elsewhere herein) for 5 min at 37° C. The dish was washed with DMEM (3×) and incubated at 19.5° C. for 60 min, washed with DMEM (3×) and imaged.
Protocol B: Same as protocol A, but without the wash step before the incubation at 19.5° C.
Protocol C: HeLa cells stably transfected to express GalNAcT2-GFP were cultured on 35 mm glass bottom dishes (Mattek), washed with DMEM (3×) and incubated with the Cer-SiR solution described for 30 min at 4° C. The dish was washed with DMEM (3×) and incubated at 37° C. for 30 min, washed with DMEM (3×) and imaged. This protocol was similar to the protocol used for Golgi labeling with BODIPY-Cer.

HeLa cells = assay: Cell viability / cell- and photo-toxicity under prolonged imaging; conditions: at concentrations as high as 2 μM
Method: In the experiments described above, the cells were exposed to Cer-TCO/SiR-Tz for minutes, a relatively short time period. To evaluate whether this Golgi labeling strategy would result in cell- or photo-toxicity over prolonged periods (such as hours), HeLa cells were treated with varying concentrations of either Cer-TCO/SiR-Tz or BODIPY® FL C5-ceramide (BODIPY-Cer) (Marks, et al., 2008, Cell Biol. 130:819-832; Pagano, et al., 1991, J. Cell Biol. 113:1267-1279), a commercially available fluorescent dye that labels the Golgi. […]
Hela cells stably expressing GalNAcT2-GFP were cultured on 35 mm glass bottom dishes subsequently labeled with various concentrations of TCO-Cer (0, 1, 2, and 5 μM) and SiR-Tz (0, 1, and 2 μM) following the protocol described elsewhere herein. […] After equilibration for 30 min, phase contrast images were taken at an interval of 20 min and fluorescence images at an interval of 10 min over 400-750 min. […] The number of physically intact cells was counted at each time point. For each condition at least 110 cells were counted/observed in the initial images (n0 (0 μM TCO-Cer, 0 μM SiR-Tz)=123 cells, n0 (2 μM TCO-Cer, 2 μM SiR-Tz)=113 cells, n0 (1 μM TCO-Cer, 1 μM SiR-Tz)=130 cells, n0 (5 μM TCO-Cer, 1 μM SiR-Tz)=120 cells, n0 (5 μM BODIPY-Cer)=123 cells).

[2] = system: fixed cells with labeled Golgi; assay: Photostability in STED microscopy of fixed cells; conditions: 0.52 frames/sec for 29 min (900 images)
Method: To evaluate the merits of Cer-SiR for super-resolution imaging of the Golgi, HeLa cells that stably expressed GalNAcT2-GFP were labeled with Cer-TCO and SiR-Tz, and imaged by confocal and STED microscopy using a commercial Leica instrument (FIGS. 6A-6C). The confocal and STED images were compared in FIG. 6A. […] A direct comparison of the relative photostabilities of Cer-SiR and SiR-SNAP-Rab6 in fixed cells was performed using a custom STED microscope that is optimized for rapid image acquisition (FIG. 6B). Cells labeled with Cer-SiR or SiR-SNAPRab6 were continuously imaged at a rate of 0.52 frames/sec for 29 min (900 images) and the intensity of a line across the Golgi was plotted (FIG. 6B). […]
STED imaging was performed on a custom built system (Bewersdorf lab, Yale University) centered around an 80 MHz mode-locked Ti:Sapphhire laser (Chameleon Ultra II, Coherent) tuned to 755 nm as the STED depletion beam. […] Excitation for fluorescence was accomplished with a 640 nm pulsed diode laser (PicoQuant) electronically synchronized to the depletion beam with an additional computer controlled electronic delay (Colby Instruments). The STED depletion and fluorescence excitation beams were combined with a dichroic mirror and directed into a 100×1.4 NA oil immersion objective lens (UPLSAPO 100XO/PSF, Olympus) where they were focused at the sample. […]

## CCCCCCCCCCCCC/C=C/[C@@H](O)[C@H](CO)NC(=O)CCCCCNC(=O)OC1CCCC2=C(c3ccc(CNC(=O)c4ccc(C(=O)[O-])c(C5=C6C=CC(=[N+](C)C)C=C6[Si](C)(C)c6cc(N(C)C)ccc65)c4)cc3)NN=CC2CC1 (stereo partly drawn) [Cer-SiR, 4-((4-(7-(((6-(((2S,3R,E)-1,3-dihydroxyoctadec-4-en-2-yl)amino)-6-oxohexyl)carbamoyl)oxy)-2,4a,5,6,7,8,9,10-octahydrocycloocta[d]pyridazin-1-yl)benzyl)carbamoyl)-2-(7-(dimethylamino)-3-(dimethyliminio)-5,5-dimethyl-3,5-dihydrodibenzo[b,e]silin-10-yl)benzoate]
[1]
  Golgi labeling with preassembled Cer-SiR: not suitable for Golgi labeling; also recorded: did not lead to Golgi labeling
HeLa cells
  Toxicity: non-toxic
[2]
  Stability of STED images under continuous imaging: stable throughout all 900 images
